From patent US8071652B2, “Method of treating irritable bowel syndrome” (The Board of Regents of the University of Texas System, priority 2003, dated 2011)
Entries after “also recorded” stand apart in the source; their conditions may differ.

Columns and labels:
sensitized rats = assay: Colorectal distention (CRD) sensitivity in visceral sensitization model; format: in vivo, rat
Experimental: New born rats were sensitized by infusion of 0.2 mls of 0.5% acetic acid into the colon at P10, control animals received saline.
At eight weeks of age, rats in four treatment groups: control+vehicle (n=3), control+cni-1493 (n=3), sensitized+vehicle (n=8), sensitized+cni-1493 (n=8) were tested after administration of drug (dissolved in 2.5% mannitol, injected i.p. at 5mg/kg for four days) for sensitivity to colorectal distention (CRD). Vehicle injected animals received 2.5% mannitol in water.
For electromyographic (EMG) measurements of visceromotor responses, under anesthesia (Nembutal, 50 mg/kg i.p.), two electrodes were implanted in the abdominal wall muscles and externalized behind the head. Rats were allowed a one week recovery time from this surgery. Under mild sedation (Brevital, […]), a 7 cm flexible balloon constructed from a surgical glove finger attached to tygon tubing was inserted into the descending colon and rectum via the anus and held in place by taping the tubing to the tail. Rats were housed in small Lucite cubicles (20×8×8 cm) and were allowed to adapt for one hour. CRD was performed by rapidly inflating the balloon to constant pressure. Pressure was measured using a sphygmomanometer connected to a pressure transducer. Rats were given graded CRD (20, 40, 60, 80 mm Hg) applied for 20 seconds every 4 minutes. […]

Myeloperoxidase (MPO) = Myeloperoxidase (MPO) assay of colon extracts; format: in vivo, rat; settings: sensitized rats, 5 mg/kg i.p. for four days
Experimental: Descending colons were placed in 10% buffered formalin and portions were frozen for myeloperoxidase (MPO) assays. Haematoxilin & Eosin stained parafin sections will be scored for inflammation by a pathologist.
Myeloperoxidase (MPO) assays were performed as described (Bhatia et al., Proc Natl Acad Sci USA 95:4760-4756, 1998). Frozen colon was homogenized in 20 mM phosphate buffer pH 7.4 and cetrifuged at 10,000× g for 10 minutes at 4° C. Pellet was resuspended in 50 mM phosphate buffer, pH 6.0 containing 0.5% hexadecyltrimethylammonium bromide. Samples were subjected to one cycle of freeze thawing, were incubated at 6° C. for 2 hrs and cetrifuged at 10,000× g for 5 min at 4° C. Change in absorbance at 655 nm was measured in reaction mix containing 1.6 mM TMB (Sigma) and 0.3 mM H2O2 on a Beckman DU-64 spectrophotometer. Activity was normalized to protein as measured in the extracts. Protein was measured by the BCA method (Pierce, Rockford, Ill.). Activity was expressed as the change in absorbance/min/mg protein.

For CC(=NN=C(N)N)c1cc(NC(=O)CCCCCCCCC(=O)Nc2cc(C(C)=NN=C(N)N)cc(C(C)=NN=C(N)N)c2)cc(C(C)=NN=C(N)N)c1.Cl.Cl.Cl.Cl [CNI-1493, N,N′-bis[3,5-diacetylphenl] decanediamidetetrakis[amidinohydrazone] tetrahvdrochloride], the “Chronic visceral hypersensitivity (CVH)” value (sensitized rats; sensitized animals, CNI1493 treatment) was “ameliorates CVH”, the “Sensitivity to CRD” value (sensitized rats; sensitized rats, 5 mg/kg i.p. for four days, graded CRD, vs vehicle, 5 mg/kg) was “significant effect; also recorded: significantly reduced” and the “MPO activity in colon” value (Myeloperoxidase (MPO)) was “significantly lowered”.
